Data reported in US20100303790A1, “USE OF BILIVERDIN REDUCTASE (BVR) AND BVR PEPTIDE FRAGMENTS TO TREAT CORONARY DISORDERS” (UNIVERSITY OF ROCHESTER, priority 2009, published 2010).

Columns and labels:
[1] = test system: rat neonatal cardiomyocytes; experiment: BVR, HO-2 and HO-1 mRNA in isoproterenol-stimulated cardiomyocytes (RT-PCR); format: cell-based; conditions: 10 μM isoproterenol
Protocol: (§1) Neonatal Rat Cardiomyocytes: Primary cultures of neonatal rat cardiomyocytes were prepared as described previously (Ding et al., “Functional Role of Phosphodiesterase 3 in Cardiomyocyte Apoptosis: Implication in Heart Failure,” Circulation 111:2469-2476 (2005) which is hereby incorporated by reference in its entirety). Briefly, fragmented ventricular tissue from 1-2 day old Sprague-Dawley rats was subjected to multiple rounds of enzymatic digestion with collagenase II (Worthington, Lakewood, N.J.). The cells were then collected by low speed centrifugation at 4° C. Non-myocytes were removed by two rounds of pre-plating the cells on culture dishes. The enriched cardiomyocytes were cultured in DMEM with 10% FBS and 10% horse serum. The day after cell adhesion, 10 μM cytosine 1-β-D-arabinofuranoside (Sigma, St. Louis, Mo.) was added to inhibit the growth of contaminating non-myocytes.
Quantitative RT-PCR: Total RNA was isolated using Trizol reagent (Invitrogen). The first-strand cDNA synthesis and quantitative polymerase chain reaction (RT-PCR) were performed as previously described (Tudor et al., “Biliverdin Reductase is a Transporter of Haem into the Nucleus and is Essential for Regulation of HO-1 Gene Expression by Haematin,” Biochem J 413:405-416 (2008), which is hereby incorporated by reference in its entirety). The following primers were used for PCR analysis: […]
PCR products were resolved by electrophoresis and quantified by image analysis of stained gels.
The question of whether the increased synthesis of each protein required elevated levels of BVR and HO-2 mRNA was investigated by RT-PCR. […] HO-1 protein expression was not detected throughout the whole process of isoproterenol treatment up to 96 hours.

[2] = test system: rat neonatal cardiomyocytes; experiment: BVR, HO-2 and HO-1 protein levels in rat neonatal cardiomyocytes (western blot); format: cell-based
Protocol: as §1
Plasmids and Constructs: Adenovirus for expression of an endogenous PKA inhibitor (PKA251 bp) was prepared as described previously (Ding et al., “Functional Role of Phosphodiesterase 3 in Cardiomyocyte Apoptosis: Implication in Heart Failure,” Circulation 111:2469-2476 (2005), which is hereby incorporated by reference in its entirety). Rat BVR and HO-2 siRNA were designed based on the human sequences (Miralem et al., “Small Interference RNA-Mediated Gene Silencing of Human Biliverdin Reductase, but not that of Heme Oxygenase-1, Attenuates Arsenite-Mediated Induction of the Oxygenase and Increases Apoptosis in 293A Kidney Cells,” J Biol Chem 280:17084-17092 (2005), which is hereby incorporated by reference in its entirety). The BVR targeting site is at nucleotides 94-114, and the HO-2 targeting site is at nucleotides 73-93, downstream of the start codon in each case. Oligonucleotides containing the sequence of a 21 nucleotide small interference RNA were synthesized as follows: BVR siRNA, 5′-GATCCCC ([…]) TTCAAGAG ([…]) TTTTTGGAAA (SEQ ID NO:61) and 5′-AGCTTTTCCAAAAA ([…]) TCTCTTGAA ([…]) GGG (SEQ ID NO:62; HO-2 siRNA, 5′-GATCCCC ([…]) TTCAAGAGA ([…]) TTTTTGGAAA (SEQ ID NO:63) and 3′-AGCTTTTCCAAAAA ([…]) TCTCTTGAA ([…]) GGG (SEQ ID NO:64). Complementary oligonucleotides were annealed, then ligated into pSuper-Retro vector (OligoEngine Co. Seattle, Wash.). E. coli clones containing the desired constructs were identified by restriction analysis and verified by DNA sequencing. The retroviral DNA vectors for generating BVR si-rRNA and […] were transfected into the HEK293A packaging cell line, and the supernatant containing the expressed si-rBVR or si-rHO-2 retrovirus was then titrated in NIH3T3 cells. Retrovirus expressing siRNA was used to infect cells at a multiplicity of infection of 4 plaque-forming units/cell. The plasmid pcDNA-hBVR has previously been described (Lerner-Marmarosh et al., “Human Biliverdin Reductase: A Member of the Insulin Receptor Substrate Family with Serine/Threonine/Tyrosine Kinase Activity,” Proc Natl Acad Sci US A 102:7109-7114 (2005), which is hereby incorporated by reference in its entirety); pcDNA-hHO2 was constructed by cloning the HO-2 open reading frame into pcDNA3. […]

[3] = test system: rat neonatal cardiomyocytes; conditions: literature (Hu et al. 2006); cited from earlier work
[4] = 10 μM isoproterenol, western blot

With `CC(C)NCC(O)c1ccc(O)c(O)c1` (stereo not drawn) [isoproterenol] the “HO-2 mRNA content” value [1] was “remained unchanged”, the “level of BVR mRNA” value [1] was “increased” and the “level of HO-1 mRNA” value [1] was “transient increase”. The “time for which increased levels of both proteins (BVR, HO-2) remained stable” value ([2]; 10 μM isoproterenol) was “up to 96 hours”, the “time by which BVR protein expression was elevated” value [2, 4] was ≤ 8 h and the “time by which HO-2 protein level began to increase” value [2, 4] was ≤ 12 h. The “time by which HO-2 protein level reached a plateau” value [2, 4] was ≤ 24 h, the HO-1 protein expression ([2]; isoproterenol treatment up to 96 hours) was “not detected” and the cardiomyocyte apoptosis [3] was “increases cardiomyocyte apoptosis”.
